Where two headings read alike, the source gives them in different places.
Tests used:
[1] = mouse, in vivo
Procedure: ^11C-choline, ^11C-D4-choline (˜18.5 MBq) and ^18F-D4-choline (˜3.7 MBq) were each injected via the tail vein of anaesthetized BALB/c nude mice. The mice were maintained under anesthesia and sacrificed by exsanguination via cardiac puncture at 2, 15, 30 or 60 min post radiotracer injection to obtain blood, plasma, heart, lung, liver, kidney and muscle. Tissue radioactivity was determined on a gamma counter (Cobra II Auto-Gamma counter, Packard Biosciences Co, Pangbourne, UK) and decay corrected. Data were expressed as percent injected dose per gram of tissue.
Time course biodistribution was performed in non-tumor-bearing male nude mice with ^11C-choline, ^11C-D4-choline and ^18F-D4-choline tracers.

HCT116 tumors [2] = details: HCT116 tumors, dynamic PET
Procedure: Dynamic ^11C-choline, ^11C-D4-choline and ^18F-D4-choline imaging scans were carried out on a dedicated small animal PET scanner (Siemens Inveon PET module, Siemens Medical Solutions USA, Inc., Malvem, Pa., USA) following a bolus i.v. injection in tumor-bearing mice of either ˜3.7 MBq for ^18F studies, or ˜18.5 MBq for ^11C. Dynamic scans were acquired in list mode format over 60 min. The acquired data were then sorted into 0.5 mm sinogram bins and 19 time frames for image reconstruction (4×15 s, 4×60 s, and 11×300 s), which was done by filtered back projection. For input function analysis, data were sorted into 25 time frames for image reconstruction (8×5 s, 1×20 s, 4×40 s, 1×80 s, and 11×300 s). The Siemens Inveon Research Workplace software was used for visualization of radiotracer uptake in the tumor; 30 to 60 min cumulative images of the dynamic data were employed to define 3-dimensional (3D) regions of interest (ROIs). Arterial input function was estimated as follows: a single voxel 3D ROI was manually drawn in the center of the heart cavity using 2 to 5 min cumulative images. Care was taken to minimize ROI overlap with the myocardium. The count densities were averaged for all ROIs at each time point to obtain a time versus radioactivity curve (TAC). Tumor TACs were normalized to injected dose, measured by a VDC-304 dose calibrator (Veenstra Instruments, Joure, The Netherlands), and expressed as percentage injected dose per mL tissue. The area under the TAC, calculated as the integral of % ID/mL from 0-60 min, and the normalized uptake of radiotracer at 60 min (% ID/mL60) were also used for comparisons.
(§1) A 2-tissue irreversible compartmental model was employed to fit the TACs, as has been previously established for ^11C-choline (Kenny L M, Contractor K B, Hinz R, et al. Reproducibility of [11C]choline-positron emission tomography and effect of trastuzumab. Clin Cancer Res. Aug. 15 2010; 16(16):4236-4245; and Sutinen E, Nurmi M, Roivainen A, et al. Kinetics of [(11)C]choline uptake in prostate cancer: a PET study. Eur J Nucl Med Mol. Imaging. March 2004; 31(3):317-324). An estimate of the whole blood TAC (wbTAC(t)) was derived from the PET image itself, as described above. […] Therefore it was fitted with a sum of 3 exponentials from the peak on and the fitted function was used as input function in the kinetic modeling (after metabolite correction, see below). […] The pf values were fitted to a sum of two exponentials with the constraint pf(t=0)=1 to obtain the function pf(t). The parent whole blood TAC wbTACPAR(t) was then computed by multiplying wbTAC(t) and pf(t) and used as input function to estimate the parameters K1 (mL/cm^3/min), k2 (1/min), k3 (1/min) and Vb (unitless). The steady state net irreversible uptake rate constant Ki (mL/cm^3/min) was calculated from the estimated microparameters as K1k3/(k2+k3).

[3] = mouse, in vivo; remark: listed apart in the source
Procedure: (§2) Radiolabeled metabolites from plasma and tissues were quantified using a method adapted from Smith G, Zhao Y, Leyton J, et al. Radiosynthesis and pre-clinical evaluation of [(18)F]fluoro-[1,2-(2)H(4)]choline. Nucl Med Biol. 2011; 38:39-51. Briefly, tumor-bearing mice under terminal anaesthesia were administered a bolus i.v. injection of one of the following radiotracers: ^11C-choline, ^11C-D4-choline (˜18.5 MBq) or ^18F-D4-choline (˜3.7 MBq), and sacrificed by exsanguination via cardiac puncture at 2, 15, 30 or 60 min post radiotracer injection. For automated radiosynthesis methodology, see Example 22. Tumor, kidney and liver samples were immediately snap-frozen in liquid nitrogen. Aliquots of heparinized blood were rapidly centrifuged (14000 g, 5 min, 4° C.) to obtain plasma. Plasma samples were subsequently snap-frozen in liquid nitrogen and kept on dry ice prior to analysis.
(§3) For analysis, samples were thawed and kept at 4° C. immediately before use. To ice cold plasma (200 μl) was added ice cold methanol (1.5 mL) and the resulting suspension centrifuged (14000 g; 4° C.; 3 min). The supernatant was then decanted and evaporated to dryness on a rotary evaporator (bath temperature, 40° C.), then resuspended in HPLC mobile phase (Solvent A: acetonitrile/water/ethanol/acetic acid/1.0 M ammonium acetate/0.1 M sodium phosphate [800/127/68/2/3/10]; 1.1 mL). Samples were filtered through a hydrophilic syringe filter (0.2 μm filter; Millex PTFE filter, Millipore, Mass., USA) and the sample (˜1 mL) then injected via a 1 mL sample loop onto the HPLC for analysis. Tissues were homogenized in ice-cold methanol (1.5 mL) using an Ultra-Turrax T-25 homogenizer (IKA Werke GmbH and Co. KG, Staufen, Germany) and subsequently treated as per plasma samples.
(§4) Samples were analyzed on an Agilent 1100 series HPLC system (Agilent Technologies, Santa Clara, Calif., USA), configured as described above, using the method of Leyton J, Smith G, Zhao Y, et al. [18F]fluoromethyl-[1, 2-2H4]-choline: a novel radiotracer for imaging choline metabolism in tumors by positron emission tomography. Cancer Res. 2009; 69:7721-7728. A μBondapak C18 HPLC column (Waters, Milford, Mass., USA; […]), stationary phase and a mobile phase comprising of Solvent A (vide supra) and Solvent B (acetonitrile/water/ethanol/acetic acid/1.0 M ammonium acetate/0.1 M sodium phosphate (400/400/68/44/88/10)), delivered at a flow rate of 3 mL/min were used for analyte separation. The gradient was set as follows: 0% B for 5 min; 0% to 100% B in 10 min; 100% B for 0.5 min; 100% to 0% B in 2 min; 0% B for 2.5 min.
as §1, with “pf(t).” for “pf(t). The parent whole blood TAC wbTACPAR(t) was then computed by multiplying wbTAC(t) and pf(t) and used as input function to estimate the parameters K1 (mL/cm^3/min), k2 (1/min), k3 (1/min) and Vb (unitless). The steady state net irreversible uptake rate constant Ki (mL/cm^3/min) was calculated from the estimated microparameters as K1k3/(k2+k3).”

HCT116 tumors [4] = details: mouse, in vivo
Procedure: as §2, §3, §4
^11C-choline, ^11C-D4-choline and ^18F-D4-choline metabolism were measured in HCT116 tumors (FIG. 22).

[5] = tested on: human melanoma (A375), prostate (PC3-M) and colon (HCT116) cancer cell lines; test: In vitro 18F-D4-choline uptake in cancer cell lines; format: cell-based; details: hemicholinium-3 5 mM, 18F-D4-choline uptake, all three cell lines
Procedure: Uptake was measured in vehicle-treated (closed symbols) and hemicholinium-3-treated cells (5 mM; open symbols). Mean values+SEM are shown (n=3). Insert: representative western blot of choline kinase-α expression in the three cell lines. Actin was used as a loading control. Abbreviations: CKα, choline kinase alpha.
Cells (5×10^5) were plated into 6-well plates the night prior to analysis. On the day of the experiment, fresh growth medium, containing 40 μCi ^18F-D4-choline, was added to individual wells. Cell uptake was measured following incubation at 37° C. in a humidified atmosphere of 5% CO2 for 60 min. Plates were subsequently placed on ice, washed 3 times with ice-cold PBS and lysed in RIPA buffer (Thermo Fisher Scientific Inc., Rockford, Ill., USA; 1 mL, 10 min). […] Aliquots were snap-frozen and used for protein determination following radioactive decay using a BCA 96-well plate assay (Thermo Fisher Scientific Inc., Rockford, Ill., USA). Data were expressed as percent of total radioactivity per mg protein. For hemicholinium-3 treatment (5 mM; Sigma-Aldrich), cells were incubated with the compound 30 min prior to addition of radioactivity and for the duration of the uptake time course. […]

Row | increase in kidney retention compared to 11C-choline [1] | liver radioactivity as betaine [3] | tumor betaine-to-phosphocholine metabolite ratio increase compared to 18F-D4-choline (HCT116 tumors [4]) | tumor radioactivity corresponding to phosphocholine (HCT116 tumors [4]) | liver radioactivity as betaine ([3]; BALB/c nude, 2 min) | plasma radioactivity in the form of betaine ([3]; BALB/c nude, 2 min) | plasma radioactivity in the form of betaine ([3]; BALB/c nude, 15 min) | tumor betaine-to-phosphocholine metabolite ratio increase compared to 18F-D4-choline (HCT116 tumors [4]; BALB/c nude) | increase in the ratio of betaine:phophocholine in comparison to 18F-D4-choline (HCT116 tumors [4]; BALB/c nude, 15 min) | tumor radioactivity corresponding to phosphocholine (HCT116 tumors [4]; BALB/c nude, 15 min) | increase in the ratio of betaine:phophocholine in comparison to 18F-D4-choline (HCT116 tumors [4]; BALB/c nude, 60 min) | tumor betaine radioactivity (HCT116 tumors [4]; BALB/c nude, 60 min) | SMILES | urinary excretion [1] | tumor tracer kinetics between 30 and 60 min (HCT116 tumors [2]) | decrease in intracellular tracer radioactivity [5]
1 | 1.8 fold | 24.5±2.1% | 259% | 43.8±1.5% |  |  |  |  |  |  |  |  | [2H]C([2H])(O)C([2H])([2H])[N+](C)(C)[11CH3] [^11C-D4-choline, ^11C-[1,2-^2H4]choline] | trend towards increased urinary excretion | Slow wash-out of activity | 
2 |  |  |  |  | 49.2±7.7% | 12.1±2.6% | 78.6±4.4% | 388% | 388% | 30.5±4.0% | 230% | 28.1±2.9% | C[N+](C)([11CH3])CCO [^11C-choline, reference compound] |  | gradual accumulation | 
3 |  |  |  |  |  |  |  |  |  |  |  |  | C[N+]1(C)CCOC(O)(c2ccc(-c3ccc(C4(O)C[N+](C)(C)CCO4)cc3)cc2)C1.[Br-].[Br-] (stereo not shown) [hemicholinium-3, reference compound] |  |  | > 90%

From patent publication US20130183239A1, “ISOTOPIC CARBON CHOLINE ANALOGS” (IMPERIAL COLLEGE, priority 2010, published 2013)
